Target: TYK2 (Homo sapiens, UniProt P29597)
Assay: TYK2 protein degradation in NOMO-1 cells by immunoblotting
Type: cell-based
Set-up: endogenous in cells
Conditions: NOMO-1 cells
Experimental: NOMO-1 cells were treated with CPD-155, CPD-157, and CPD-158 at 0.1, 1, 10, 100 and 1000 nM concentrations for 16 hours. […] Data shown that CPD-155, CPD-157, and CPD-158 are very potent at the reduction protein levels of TYK2.
MOLT-4 or NOMO-1 cells were cultured at 37° C. with 5% CO2 in RPMI 1640 Medium supplemented with 10% fetal bovine serum. Cells were authenticated using the short tandem repeat (STR) assays. Mycoplasma test results were negative.
Cultured cells were washed with cold PBS once and lysed in cold RIPA buffer supplemented with protease inhibitors and phosphatase inhibitors (Beyotime Biotechnology). The solutions were then incubated at 4° C. for 30 minutes with gentle agitation to fully lyse cells. Cell lysates were centrifuged at 13,000 rpm for 10 minutes at 4° C. and pellets were discarded. Total protein concentrations in the lysates were determined by BCA assays (Beyotime Biotechnology). Cell lysates were mixed with Laemmli loading buffer to 1× and heated at 99° C. for 5 min. Proteins were resolved on SDS-PAGE and visualized by chemiluminescence. Images were taken by a ChemiDoc MP Imaging system (Bio-Rad). Protein bands were quantitated using the accompanied software provided by Bio-Rad.

Sequence of TYK2 (P29597 whole entry): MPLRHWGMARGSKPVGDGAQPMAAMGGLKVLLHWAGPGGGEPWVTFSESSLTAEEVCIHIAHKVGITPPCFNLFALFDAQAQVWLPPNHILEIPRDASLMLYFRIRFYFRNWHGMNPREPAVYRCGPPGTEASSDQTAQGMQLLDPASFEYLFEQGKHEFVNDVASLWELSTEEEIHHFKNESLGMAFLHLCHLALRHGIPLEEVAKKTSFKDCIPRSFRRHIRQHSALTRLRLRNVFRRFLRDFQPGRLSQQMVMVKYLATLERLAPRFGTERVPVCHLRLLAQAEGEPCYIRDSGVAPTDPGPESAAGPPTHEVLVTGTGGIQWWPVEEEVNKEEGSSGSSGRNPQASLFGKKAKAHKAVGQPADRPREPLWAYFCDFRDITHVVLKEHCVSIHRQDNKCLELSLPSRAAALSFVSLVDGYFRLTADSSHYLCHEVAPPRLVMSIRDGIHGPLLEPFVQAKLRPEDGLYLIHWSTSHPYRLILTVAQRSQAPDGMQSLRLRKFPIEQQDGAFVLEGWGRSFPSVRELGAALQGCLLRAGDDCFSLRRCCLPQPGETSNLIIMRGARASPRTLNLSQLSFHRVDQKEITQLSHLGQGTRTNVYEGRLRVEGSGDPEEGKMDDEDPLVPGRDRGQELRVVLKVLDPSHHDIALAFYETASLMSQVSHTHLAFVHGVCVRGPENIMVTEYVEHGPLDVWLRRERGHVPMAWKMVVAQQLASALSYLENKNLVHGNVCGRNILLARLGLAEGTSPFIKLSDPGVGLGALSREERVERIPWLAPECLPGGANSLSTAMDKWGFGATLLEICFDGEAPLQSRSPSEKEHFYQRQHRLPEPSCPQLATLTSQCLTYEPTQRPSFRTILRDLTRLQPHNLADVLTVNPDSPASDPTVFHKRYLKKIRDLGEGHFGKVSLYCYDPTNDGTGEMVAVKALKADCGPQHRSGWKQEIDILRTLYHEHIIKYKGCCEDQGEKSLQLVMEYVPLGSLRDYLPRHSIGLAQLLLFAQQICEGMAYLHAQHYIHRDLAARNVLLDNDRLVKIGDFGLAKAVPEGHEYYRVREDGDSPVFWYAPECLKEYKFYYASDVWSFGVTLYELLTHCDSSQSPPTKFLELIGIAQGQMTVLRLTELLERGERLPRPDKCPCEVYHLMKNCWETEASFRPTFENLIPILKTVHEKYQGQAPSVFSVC

Structure (SMILES)	TYK2 Degradation (NOMO-1, 10 nM)	TYK2 Degradation (NOMO-1, 100 nM)
CNC(=O)c1nnc(Nc2ccc(C#CC3CCN(C(=O)CCC(=O)N[C@H](C(=O)N4C[C@H](O)C[C@H]4C(=O)N[C@@H](C)c4ccc(-c5scnc5C)cc4)C(C)(C)C)CC3)cn2)cc1Nc1cccc(-c2ncn(C)n2)c1OC [CPD-116, 6-((5-((1-(4-(((S)-1-((2S,4R)-4-Hydroxy-2-(((S)-1-(4-(4-methylthiazol-5-yl)phenyl)ethyl)carbamoyl)pyrrolidin-1-yl)-3,3-dimethyl-1-oxobutan-2-yl)amino)-4-oxobutanoyl)piperidin-4-yl)ethynyl)pyridin-2-yl)amino)-4-((2-methoxy-3-(1-methyl-1H-1,2,4-triazol-3-yl)phenyl)amino)-N-methylpyridazine-3-carboxamide]	C (C: ≤20% TYK2 degradation)	A (A: ≥60% TYK2 degradation)
CNC(=O)c1nnc(Nc2ccc(C#CC3CCN(C(=O)CCCCC(=O)N[C@H](C(=O)N4C[C@H](O)C[C@H]4C(=O)N[C@@H](C)c4ccc(-c5scnc5C)cc4)C(C)(C)C)CC3)cn2)cc1Nc1cccc(-c2ncn(C)n2)c1OC [CPD-117, 6-((5-((1-(6-(((S)-1-((2S,4R)-4-Hydroxy-2-(((S)-1-(4-(4-methylthiazol-5-yl)phenyl)ethyl)carbamoyl)pyrrolidin-1-yl)-3,3-dimethyl-1-oxobutan-2-yl)amino)-6-oxohexanoyl)piperidin-4-yl)ethynyl)pyridin-2-yl)amino)-4-((2-methoxy-3-(1-methyl-1H-1,2,4-triazol-3-yl)phenyl)amino)-N-methylpyridazine-3-carboxamide]	C (C: ≤20% TYK2 degradation)	A (A: ≥60% TYK2 degradation)
CNC(=O)c1nnc(Nc2ccc(C#CC3CCN(C(=O)CCCCCC(=O)N[C@H](C(=O)N4C[C@H](O)C[C@H]4C(=O)N[C@@H](C)c4ccc(-c5scnc5C)cc4)C(C)(C)C)CC3)cn2)cc1Nc1cccc(-c2ncn(C)n2)c1OC [CPD-118, 6-((5-((1-(7-(((S)-1-((2S,4R)-4-Hydroxy-2-(((S)-1-(4-(4-methylthiazol-5-yl)phenyl)ethyl)carbamoyl)pyrrolidin-1-yl)-3,3-dimethyl-1-oxobutan-2-yl)amino)-7-oxoheptanoyl)piperidin-4-yl)ethynyl)pyridin-2-yl)amino)-4-((2-methoxy-3-(1-methyl-1H-1,2,4-triazol-3-yl)phenyl)amino)-N-methylpyridazine-3-carboxamide]	B (B: <60% TYK2 degradation, and >20% TYK2 degradation)	A (A: ≥60% TYK2 degradation)
CNC(=O)c1nnc(Nc2ccc(C#CC3CCN(C(=O)CCCCCCC(=O)N[C@H](C(=O)N4C[C@H](O)C[C@H]4C(=O)N[C@@H](C)c4ccc(-c5scnc5C)cc4)C(C)(C)C)CC3)cn2)cc1Nc1cccc(-c2ncn(C)n2)c1OC [CPD-119, 6-((5-((1-(8-(((S)-1-((2S,4R)-4-Hydroxy-2-(((S)-1-(4-(4-methylthiazol-5-yl)phenyl)ethyl)carbamoyl)pyrrolidin-1-yl)-3,3-dimethyl-1-oxobutan-2-yl)amino)-8-oxooctanoyl)piperidin-4-yl)ethynyl)pyridin-2-yl)amino)-4-((2-methoxy-3-(1-methyl-1H-1,2,4-triazol-3-yl)phenyl)amino)-N-methylpyridazine-3-carboxamide]		A (A: ≥60% TYK2 degradation)
CNC(=O)c1nnc(Nc2ccc(C#CC3CCN(C(=O)CCCCCCCC(=O)N[C@H](C(=O)N4C[C@H](O)C[C@H]4C(=O)N[C@@H](C)c4ccc(-c5scnc5C)cc4)C(C)(C)C)CC3)cn2)cc1Nc1cccc(-c2ncn(C)n2)c1OC [CPD-120, 6-((5-((1-(9-(((S)-1-((2S,4R)-4-Hydroxy-2-(((S)-1-(4-(4-methylthiazol-5-yl)phenyl)ethyl)carbamoyl)pyrrolidin-1-yl)-3,3-dimethyl-1-oxobutan-2-yl)amino)-9-oxononanoyl)piperidin-4-yl)ethynyl)pyridin-2-yl)amino)-4-((2-methoxy-3-(1-methyl-1H-1,2,4-triazol-3-yl)phenyl)amino)-N-methylpyridazine-3-carboxamide]		A (A: ≥60% TYK2 degradation)
